Assay results reported in patent US4355026A, “4-Demethoxy,11-deoxy anthracycline derivatives” (priority 1980, dated 1982).
Converted amounts (≈) assume the structure as drawn. Read-outs that look alike come from different tables or passages of the source.

Assays:
L1210 leukemia cells [1] = assay: Inhibitory effect on growth of L1210 cultivated leukemic cells of mice; type: cell-based; conditions: Mus musculus
Protocol: (§1) A. Inhibitory Effect on Growth, DNA Synthesis and RNA Synthesis of L1210 Cultivated Leukemic Cells of Mice
For example, L1210 cells were inoculated in a concentration of 5×10^4 cells/ml in an RPMI 1640 culture medium (Roswell Park Memorial Institute 1640) containing 20% calf serum and, simultaneously, representative compounds of the present invention were added in a concentration of 0.1 and 0.5 μg/ml. The cells were cultivated in a CO2 generator at 37° C. The 50% growth inhibitory concentration with respect to a control group was then determined.

[2] = system: L1210 leukemia cells, DNA synthesis; assay: Inhibition of DNA synthesis (14C-thymidine incorporation) of L1210 cultivated leukemic cells; type: cell-based; conditions: Mus musculus, L1210, 1 h; for IC50: read-out: IC50 DNA synthesis; for IC90: read-out: IC90 DNA synthesis
Protocol: as §1
(§2) Separately, the above L1210 cultivated cells were suspended in a concentration of 5×10^5 cells/ml in an RPMI 1640 medium containing 10% calf serum and cultivated for 1 to 2 hours in a CO2 incubator at 37° C. Then, representative test compounds were added in various concentrations, and 15 minutes later, ^14 C-uridine (0.05 μCi/ml) or ^14 C-thymidine (0.05 μCi/ml) were added. The cells were incubated at 37° C. for 60 minutes. A 10% aqueous trichloroacetic acid solution was added to the incubation medium to stop the reaction and simultaneously precipitate acid-insoluble matter. The acid-insoluble matter was washed three times with a 5 to 10% aqueous solution of trichloroacetic acid and then dissolved in formic acid. The radioactivity of the acid-insoluble matter was measured. From the ratio of incorporated radiation to that of a control group, the concentrations which inhibited radiation by 10%, 50% and 90% respectively were measured.

[3] = system: L1210 leukemia cells, RNA synthesis; assay: Inhibition of RNA synthesis (14C-uridine incorporation) of L1210 cultivated leukemic cells; type: cell-based; conditions: Mus musculus, L1210, 1 h; for IC50: read-out: IC50 RNA synthesis; for IC90: read-out: IC90 RNA synthesis
Protocol: as §1, §2

L1210 leukemia cells [4] = assay: Antitumor activity on CDFI mouse leukemia induced by mouse L1210 leukemia cells; type: in vivo, CDFI mice; parameters: key to Toxicity: *: Toxicity-; conditions: intraperitoneal, 10 consecutive days
Protocol: B. Antitumor Activity on CDFI Mouse Leukemia Induced by Mouse L1210 Leukemia cells
L1210 leukemia cells of mice were intraperitoneally transplanted in an amount of 1×10^5 cells/mouse in CDFI mice. Starting 24 hours after the transplantation, each of the test compounds was intraperitoneally administered to the mice for 10 consecutive days. the survival rate (T/C, %) was calculated in comparison with a control group (to which physiological saline was administered).

[5] = system: Mycobacterium smegmatis ATCC 607; assay: MIC on nutrient agar medium; type: cell-based; conditions: Mycolicibacterium smegmatis, ATCC607
Text: (§3) The compounds of formula I provided by the present invention are also characterized by their antimicrobial activity. Table 3 summarizes the minimum inhibitory concentrations (MIC) of representative compounds of the present invention against various microorganisms on a nutrient agar medium.

[6] = system: Corynebacterium bovis 1810; assay: MIC on nutrient agar medium; type: cell-based
Text: as §3

[7] = system: Klebsiella pneumonia PCI 602; assay: MIC on nutrient agar medium; type: cell-based; conditions: Klebsiella pneumoniae, PCI602
Text: as §3

Escherichia coli NIHJ = assay: MIC on nutrient agar medium; type: cell-based
Text: as §3

Candida albicans 3147 = assay: MIC on nutrient agar medium; type: cell-based
Text: as §3

[8] = system: Bacillus subtilis NRRB- 558; assay: MIC on nutrient agar medium; type: cell-based; conditions: NRRB558
Text: as §3

Sarcina lutea PCI 1001 = assay: MIC on nutrient agar medium; type: cell-based; conditions: Micrococcus luteus, PCI1001
Text: as §3

[9] = system: Bacillus subtilis PCI 219; assay: MIC on nutrient agar medium; type: cell-based; conditions: PCI219
Text: as §3

[10] = system: Bacillus cereus ATCC 10702; assay: MIC on nutrient agar medium; type: cell-based; conditions: ATCC10702
Text: as §3

[11] = system: Staphylococcus aureus FDA 209; assay: MIC on nutrient agar medium; type: cell-based; conditions: FDA209
Text: as §3

[12] = system: Staphylococcus aureus smith; assay: MIC on nutrient agar medium; type: cell-based
Text: as §3

[13] = system: Microccus lysodeikticus IFQ 3333; assay: MIC on nutrient agar medium; type: cell-based
Text: as §3

Microccus flavus FDA 16 = assay: MIC on nutrient agar medium; type: cell-based
Text: as §3

[14] = system: Pseudomonas aeruginosa A3; assay: MIC on nutrient agar medium; type: cell-based
Text: as §3

Bacillus megatherium APF = assay: MIC on nutrient agar medium; type: cell-based
Text: as §3

[15] = system: Shigella flexneri 46 JS 11811; assay: MIC on nutrient agar medium; type: cell-based; conditions: 46JS11811
Text: as §3

Salmonella typhi T - 63 = assay: MIC on nutrient agar medium; type: cell-based; conditions: Salmonella enterica
Text: as §3

[16] = L1210, 24 h, 1 day later, RPMI 1640, 20% calf serum, 37° C., read-out: IC50 growth, 1 day later
[17] = L1210, 48 h, 2 days later, RPMI 1640, 20% calf serum, 37° C., read-out: IC50 growth, 2 days later
[18] = 14C-thymidine, 60 minutes, 37° C.
[19] = 90% inhibition, 14C-thymidine, 60 minutes, 37° C.
[20] = 14C-uridine, 60 minutes, 37° C.
[21] = 90% inhibition, 14C-uridine, 60 minutes, 37° C.
[22] = L1210, 24 h, read-out: IC50 growth, 1 day later
[23] = L1210, 48 h, read-out: IC50 growth, 2 days later

| IC50 (L1210 leukemia cells [1]; [16]) | IC50 (L1210 leukemia cells [1]; [17]) | IC50 [2, 18] | IC90 [2, 19] | IC50 [3, 20] | IC90 [3, 21] | Compound | IC50 (L1210 leukemia cells [1]; [22]) | IC50 (L1210 leukemia cells [1]; [23]) | Survival rate (T/C, %) (L1210 leukemia cells [4]; 0.15 mg/kg/day) | Survival rate (T/C, %) (L1210 leukemia cells [4]; 0.3 mg/kg/day) | Survival rate (T/C, %) (L1210 leukemia cells [4]; 0.6 mg/kg/day) | Survival rate (T/C, %) (L1210 leukemia cells [4]; 1.25 mg/kg/day) | Survival rate (T/C, %) (L1210 leukemia cells [4]; 2.5 mg/kg/day) | IC50 [2] | IC90 [2] | IC50 [3] | IC90 [3] | also measured |
| --- | --- | --- | --- | --- | --- | --- | --- | --- | --- | --- | --- | --- | --- | --- | --- | --- | --- | --- |
| 0.02 µg/mL (≈ 0.0389 µM) | 0.006 µg/mL (≈ 0.0117 µM) | 1.6 µg/mL (≈ 3.12 µM) | 10 µg/mL (≈ 19.5 µM) | 1.2 µg/mL (≈ 2.34 µM) | 6 µg/mL (≈ 11.7 µM) | C[C@@H]1O[C@@H](O[C@H]2C[C@](O)(C(=O)CO)Cc3c(O)c4c(c(O)c32)C(=O)c2ccccc2C4=O)C[C@H](N)[C@@H]1O [4-Demethoxy-adriamycin, reference compound] |  |  |  |  |  |  |  |  |  |  |  |  |
| 2 µg/mL (≈ 4.15 µM) | 1.25 µg/mL (≈ 2.6 µM) | 4.5 µg/mL (≈ 9.35 µM) | 15 µg/mL (≈ 31.2 µM) | 5 µg/mL (≈ 10.4 µM) | 13 µg/mL (≈ 27 µM) | CC(=O)[C@@]1(O)Cc2cc3c(c(O)c2[C@H](O[C@@H]2C[C@H](N)[C@H](O)[C@H](C)O2)C1)C(=O)c1ccccc1C3=O (single isomer, unassigned; isomer 4) [4-Demethoxy-11-deoxy-daunomycin (7R,9R,1'β )isomer, 4-Demethoxy-11-deoxydaunomycin] |  |  |  |  |  |  |  |  |  |  |  |  |
|  |  |  |  |  |  | COc1cccc2c1C(=O)c1c(O)c3c(c(O)c1C2=O)C[C@@](O)(C(=O)CO)C[C@@H]3O[C@H]1C[C@H](N)[C@H](O)[C@H](C)O1 [Adriamycin] | 0.05 µg/mL (≈ 0.092 µM) | 0.03 µg/mL (≈ 0.0552 µM) | 130% | 147% | 239% | 272% | 351% | 1.65 µg/mL (≈ 3.04 µM) | 4.5 µg/mL (≈ 8.28 µM) | 0.68 µg/mL (≈ 1.25 µM) | 6.5 µg/mL (≈ 12 µM) | Survival rate (T/C, %) (L1210 leukemia cells [4]; 5 mg/kg/day): 189%; Toxicity (L1210 leukemia cells [4]; 5 mg/kg/day): * |
|  |  |  |  |  |  | COc1cccc2c1C(=O)c1c(O)c3c(c(O)c1C2=O)C[C@@](O)(C(C)=O)C[C@@H]3O[C@H]1C[C@H](N)[C@H](O)[C@H](C)O1 [Daunomycin, reference compound] | 0.049 µg/mL (≈ 0.0929 µM) | 0.036 µg/mL (≈ 0.0682 µM) | 118% | 132% | 145% | 191% | 138% | 0.3 µg/mL (≈ 0.569 µM) | 1.8 µg/mL (≈ 3.41 µM) | 0.18 µg/mL (≈ 0.341 µM) | 1.8 µg/mL (≈ 3.41 µM) | Survival, in words (dead through toxicity) (L1210 leukemia cells [4]; 5 mg/kg/day): dead |
| 0.05 µg/mL (≈ 0.0977 µM) |  |  |  |  |  | COc1cccc2c1C(=O)c1c(cc3c(c1O)[C@@H](O[C@H]1C[C@H](N)[C@H](O)[C@H](C)O1)C[C@](O)(C(C)=O)C3)C2=O [11-deoxy-daunomycin, reference compound] |  |  |  |  |  |  |  |  |  |  |  |  |

| Compound | IC50 (L1210 leukemia cells [1]; [16]) | IC50 (L1210 leukemia cells [1]; [17]) | IC50 [2, 18] | IC90 [2, 19] | IC50 [3, 20] | IC90 [3, 21] | IC50 (L1210 leukemia cells [1]; [22]) | IC50 (L1210 leukemia cells [1]; [23]) | Survival rate (T/C, %) (L1210 leukemia cells [4]; 0.15 mg/kg/day) | Survival rate (T/C, %) (L1210 leukemia cells [4]; 0.3 mg/kg/day) | Survival rate (T/C, %) (L1210 leukemia cells [4]; 0.6 mg/kg/day) | Survival rate (T/C, %) (L1210 leukemia cells [4]; 1.25 mg/kg/day) | Survival rate (T/C, %) (L1210 leukemia cells [4]; 2.5 mg/kg/day) | IC50 [2] | IC90 [2] | IC50 [3] | IC90 [3] | also measured |
| --- | --- | --- | --- | --- | --- | --- | --- | --- | --- | --- | --- | --- | --- | --- | --- | --- | --- | --- |
| C[C@@H]1O[C@@H](O[C@@H]2C[C@@](O)(C(=O)CO)Cc3cc4c(c(O)c32)C(=O)c2ccccc2C4=O)C[C@H](N)[C@@H]1O (single isomer, unassigned; isomer 4) [4-Demethoxy-11-deoxy-adriamycin (7R,9R,1'α)isomer, 4-Demethoxy-11-deoxyadriamycin] | 72.5 µg/mL (≈ 146 µM) | 72.5 µg/mL (≈ 146 µM) | > 10 µg/mL | > 10 µg/mL | > 10 µg/mL | > 10 µg/mL |  |  |  |  |  |  |  |  |  |  |  | MIC [5]: 100 µg/mL (≈ 201 µM); MIC [6]: > 100 µg/mL; MIC [7]: > 100 µg/mL; MIC (Escherichia coli NIHJ): > 100 µg/mL; MIC (Candida albicans 3147): > 100 µg/mL; MIC [8]: > 100 µg/mL; MIC (Sarcina lutea PCI 1001): > 100 µg/mL; MIC [9]: > 100 µg/mL; MIC [10]: > 100 µg/mL; MIC [11]: > 100 µg/mL; MIC [12]: > 100 µg/mL; MIC [13]: > 100 µg/mL; MIC (Microccus flavus FDA 16): > 100 µg/mL; MIC [14]: > 100 µg/mL; MIC (Bacillus megatherium APF): > 100 µg/mL; MIC [15]: > 100 µg/mL; MIC (Salmonella typhi T - 63): > 100 µg/mL |
